We go through nine compounds from patent publication US7105521B2, “Eugenosedin-A based pharmacoligical agents” (Syn-Tech Chem & Pharm Co., Ltd., priority 2003, dated 2006).

Assay [1] has as its system IFN-γ. As to the kind of experiment: Plasma cytokine immunoreactivity after LPS: IFN-γ. In kind it is in vivo, Wistar rats. The note with it: 1 hour after LPS administration. As for the experimental part: (§1) Plasma cytokine immunoreactivity and blood glucose. Blood was collected from venous cannula, injected into ice-cold heparinized Eppendorf tubes and centrifuged at 1500 rpm for 10 min at 4° C. Plasma supernatant was stored at −70° C. until analyzed. Solid phase enzyme immunoassay that specifically detects murine IL-1β, IL-6, IFN-γ and TNF-α was used with a detection limit of >10 pg/ml (Endogen, U.S.A). Pretreatment with eugenosedin-A and other agents was performed 15 minutes before intravenous injection of LPS. Blood was collected from venous cannula. Blood glucose was measured with a glucose test strip (Glucotide, Bayer, U.S.A) at 1, 3 and 5 hours.

In assay [2] the test system is TNF-α. The assay is described as follows: Plasma cytokine immunoreactivity after LPS: TNF-α. In kind it is in vivo, Wistar rats. How it is done: as §1
A short description of assay [3]: Blood glucose after LPS. In kind it is in vivo, Wistar rats. The note with it: for initial hyperglycemic response to LPS: blood glucose at 1 and 3 hours after LPS; for hypoglycemic response to LPS: blood glucose at 5 hours after LPS. As for the experimental part:
as §1

Assay [4] deals with IL-1β. As to the kind of experiment: Plasma cytokine immunoreactivity after LPS: IL-1β. The note with it: 3 hours after LPS 10 mg kg^−1 i.v.; pretreatment (eugenosedin-A 1 mg kg^−1 i.v.). The format is in vivo, Wistar rats. As for the experimental part:
as §1

Assay [5] in a line: LPS-induced hypotension. In kind it is in vivo, Wistar rats. The note with it: LPS 10 mg kg^−1 i.v.; for LPS-induced hypotension: 15 mg kg^−1 i.v.; for development of hypotension after LPS injection and normalization of BP: i.v. pretreatment; for second prolonged hypotensive phase after LPS: pretreatment 0.5 and 1 mg kg^−1 i.v. As for the experimental part:
Intravenous injection. The experiments were carried out as previously described (Wu B N. et al., Biochem. Pharmacol., 48:101–109, 1994). In brief, Wistar rats weighing 250–300 grams were anesthetized with pentobarbital sodium (50 mg kg^−1, i.p.). Following tracheal cannulation, systemic arterial BP and HR were recorded from the femoral artery by a pressure transducer (model P10EZ; Spectramed, Oxnard, Calif., U.S.A.) connected to a recorder (GOULD, Valley View, Ohio, Model P50). Body temperature was maintained at 37° C. by an electric heating pad. A femoral vein was cannulated for intravenous injection of drugs and LPS (10 mg kg^−1).

The subject of assay [6] is α1 receptors. As to the kind of experiment: Receptor binding, [3H]prazosin, rat cortex. Also on record: species or system Wistar rat. How it is done: (§2) Drugs and chemicals. […] Eugenosedin-A synthesized in this laboratory was solvated in 50% absolute alcohol, 10% propylene glycol and further diluted with distilled water. All of the [^3H] ligand was purchased from New England Nuclear Corp. (Boston, Mass., U.S.A.).
(§3) Receptor binding studies. […] The homogenate was pressure filtered through muslin. Filtrate was centrifuged at 1000 g for 10 min. Supernatant was centrifuged at 10,000 g for 12 min at 4° C. The second supernatant was centrifuged at 30,000 g for 15 min at 4° C. The final pellet was re-suspended in assay buffer (75 mM Tris HCl, 25 mM MgCl2, pH 7.4). Protein content was determined by Bradford's method. Radioligand agents and membranes (200–300 μg) were incubated for 60 min at 25° C. with or without the addition of nonspecific binding agents, in a 75 mM Tris HCl buffer with 25 mM MgCl2, to make a final volume of 500 μl. In competitive-binding experiments, the competing agent was added directly to the incubation mixture. Incubation was terminated by addition of 1 ml of ice-cold assay buffer followed by immediate filtration through Whatman GF/C glass fiber filters supported on a 12-port filter manifold (Millipore). The filters were immediately washed 3 times with 5 ml of ice-cold assay buffer and dried in an oven at 60° C. for 2 hours before adding 5 ml of Triton-toluene-based scintillation fluid. Membrane-bound radioligand trapped in the filters was counted in a Beckman LS6500 scintillation system (Fullerton, Calif., U.S.A) with an efficiency of 45%. In each experiment, nonspecifically bound radioligand agents were determined by incubating membrane protein. Specific binding for each sample was obtained by deducting this value from the total binding of radioligand agents.

Assay [7] relates to α2 receptors. The assay is described as follows: Receptor binding, [3H]yohimbine, rat cortex. Details: species or system Wistar rat. How it is done: as §2, §3
Assay [8] can be described thus: Peroxyl radical scavenging, B-phycoerythrin/AAPH. The format is biochemical. As for the experimental part:
The stoichiometric factors of the test compounds with hydrophilic peroxyl radicals were calculated by the equation as mentioned Ascorbic acid was used as a positive control.

A short description of assay [9]: Micro-injection in NTS: BP and HR. The format is in vivo, rats. The following applies: for pressor response and HR: NTS micro-injection, 0.03, 0.3 μmol, within 30 minutes after injection. From the text:
Micro-injection in NTS. Rats were anesthetized and placed in a David-Kopf stereotaxic instrument. The cerebellum was exposed after removing the skin and occipital bone. […] At the end of experiments, the animals were sacrificed. The brain was removed and sectioned for histological confirmation of the drug application site.

A short description of assay [10]: Intra-cisternal injections: mean arterial BP and HR. In kind it is in vivo, rats. The following applies: for effect on mean arterial BP and HR: eugenosedin-A and trazodone 0.3, 0.03 μmol, yohimbine 0.03 μmol. How it is done:
(§4) Intra-cisternal injections. […] Briefly, rats weighing 250–300 g were anaesthetized with pentobarbital sodium (50 mg kg^−1, i.p.) and mounted in a David-Kopf stereotaxic instrument (Yeh J L. et al., Brain. Res. Bull., 30:641–648, 1993). The calvarium was exposed and a 1 mm diameter trephine hole was drilled 1.8 mm lateral to the coronary and 1.5 mm posterior to the sagittal sutures. A cannula (0.7 mm O.D.) connected to a Hamilton syringe (RN-705, 5051) by PE-50 was advanced 4.7 mm into the brain using the electrode carrier.

Assay [11] has as its system α2-adrenoceptor. As to the kind of experiment: Intra-cisternal antagonism of clonidine-induced hypotension and bradycardia. In kind it is in vivo, rats. The following applies: for hypotensive effect of clonidine: given 15 min before clonidine injection. As for the experimental part:
as §4

In assay [12] the target is 5-HT2A receptor (Rattus norvegicus, UniProt P14842). The assay is described as follows: Receptor binding, [3H]ketanserin, rat cortex. Also on record: from tissue; host or cells: Wistar rat cortex membranes; species or system Wistar rat. The note with it: [3H]ketanserin, rat cortex. How it is done:
as §2, §3

[13] abbreviates: 3 hours after LPS 10 mg kg^−1 i.v., pretreatment (eugenosedin-A 1 mg kg^−1 i.v.).
[14] abbreviates: 5 hours after LPS 10 mg kg^−1 i.v., pretreatment.

Sequence of 5-HT2A receptor (P14842 whole entry): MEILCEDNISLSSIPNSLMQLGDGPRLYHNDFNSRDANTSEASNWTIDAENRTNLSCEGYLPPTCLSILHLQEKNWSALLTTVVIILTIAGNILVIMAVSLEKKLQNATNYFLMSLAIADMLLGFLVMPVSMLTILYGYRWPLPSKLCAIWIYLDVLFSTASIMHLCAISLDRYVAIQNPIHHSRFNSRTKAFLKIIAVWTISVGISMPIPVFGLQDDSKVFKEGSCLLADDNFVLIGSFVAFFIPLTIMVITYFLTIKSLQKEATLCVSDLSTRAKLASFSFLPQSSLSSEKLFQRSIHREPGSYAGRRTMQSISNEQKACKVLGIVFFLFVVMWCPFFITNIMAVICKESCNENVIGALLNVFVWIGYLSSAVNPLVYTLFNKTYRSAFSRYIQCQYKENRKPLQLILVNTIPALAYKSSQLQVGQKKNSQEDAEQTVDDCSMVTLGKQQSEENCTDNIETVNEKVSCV

As for `O=C1O[C@H]([C@@H](O)CO)C(O)=C1O` [ascorbic acid], the “LPS-induced production of IFN-γ” value in assay [1] is “insignificantly enhanced”. Also, the “LPS-induced increase in TNF-α” value in assay [2] (setting [13]) is “significantly inhibited”. In assay [3], the “initial hyperglycemic response to LPS” value is reported as “inhibited the initial hyperglycemic response to LPS” and the “hypoglycemic response to LPS” value is given as “did not reverse the hypoglycemic response”. Also, the “LPS-induced increase in IL-1β” value in assay [4] is reported as “significantly inhibited”. Besides, the LPS-induced hypotension entry in assay [5] is reported as “inhibited LPS-induced hypotension”.
In the case of `CC[C@@H](CO)NC(=O)[C@@H]1C=C2c3cccc4c3c(cn4C)C[C@H]2N(C)C1` [methysergide], in assay [6], the “binding affinity for α1 receptors” value is “lower binding affinities for α1 receptors”; the “order of α1 receptor binding potency” value is “prazosin >ketanserin >eugenosedin-A >methylsergide, propranolol and 5-HT”. In [7], the “binding affinity for α2-adrenoceptors” value is reported as “had binding affinities for α2-adrenoceptors”; the “order of α2 receptor binding potency” value is “prazosin >eugenosedin-A >ketanserin >methylsergide >propranolol and 5-HT”.
Consider `O=c1n(CCCN2CCN(c3cccc(Cl)c3)CC2)nc2ccccn12` [trazodone], for which the “LPS-induced increase in TNF-α” value in [2] (setting [13]) is on record as “significantly inhibited”; in [2] (setting [14]), “significantly reduced”. In [8], the “scavenging of AAPH-derived peroxyl radicals (B-phycoerythrin fluorescence, lag time)” value is on record as “did not scavenge peroxyl radicals”. Moreover, the “pressor response and HR” value in [9] was “mild, but significant, pressor responses and increased the HR”. In [10], the “effect on mean arterial BP and HR” value was “increased mean arterial BP and HR”. The “LPS-induced increase in IL-1β” value in [4] is on record as “significantly inhibited”. In addition, the “hypotensive effect of clonidine” value in assay [11] is “antagonized the hypotensive effect of clonidine”. For the same compound, the “development of hypotension after LPS injection and normalization of BP” value in [5] is reported as “normalized BP within 5 hours”. For the same compound, the “first immediate hypotensive phase after LPS” value in [5] (pretreatment 0.5 mg kg^−1 i.v.) is “not affected”; in assay [5] (pretreatment 1 mg kg^−1 i.v.) it was “attenuated it”. Moreover, the “second prolonged hypotensive phase after LPS” value in assay [5] is “significantly reduced”.
In the case of `COC(=O)[C@@H]1[C@H]2C[C@H]3c4[nH]c5ccccc5c4CCN3C[C@@H]2CC[C@@H]1O` [yohimbine], in [1], the “LPS-induced production of IFN-γ” value is recorded as “insignificantly enhanced”. Also, the “LPS-induced increase in TNF-α” value in assay [2] (setting [13]) was “significantly inhibited”. The “LPS-induced increase in TNF-α” value in [2] (setting [14]) is “significantly reduced”. Besides, in [9] (NTS micro-injection, 0.03 μmol), the HR increase entry is on record as “up to 78 bpm” and the pressor response result is reported as “up to 13 mmHg”. In assay [10] (0.03 μmol), the “increase of HR” value is reported as “up to 78 bpm” and the pressor response result was “up to 13 mmHg”. Besides, the “effect on mean arterial BP and HR” value in [10] is “increased mean arterial BP and HR”. Moreover, the “LPS-induced increase in IL-1β” value in assay [4] is recorded as “significantly inhibited”. Besides, the “hypotensive effect of clonidine” value in assay [11] is on record as “antagonized the hypotensive effect of clonidine”. Further, the clonidine-induced bradycardia result in [11] (low dose, 0.03 μmol) was “did not inhibit clonidine-induced bradycardia”. In addition, in assay [5], the “development of hypotension after LPS injection and normalization of BP” value is recorded as “normalized BP within 5 hours”; the “second prolonged hypotensive phase after LPS” value was “significantly reduced”. Besides, in assay [5] (pretreatment 0.5 mg kg^−1 i.v.), the “first immediate hypotensive phase after LPS” value is “not affected”. For the same compound, in [5] (pretreatment 1 mg kg^−1 i.v.), the “first immediate hypotensive phase after LPS” value was “attenuated it”.
Consider `CNCCC(Oc1ccc(C(F)(F)F)cc1)c1ccccc1` (stereo not shown) [fluoxetine], for which the “pressor response and HR” value in assay [9] was “mild, but significant, pressor responses and increased the HR”.
In the case of `Cl.N=C(N)NN` [aminoguanidine, aminoguanidine HCl], the “LPS-induced increase in TNF-α” value in assay [2] (setting [13]) is “significantly inhibited”. Besides, in assay [3], the “initial hyperglycemic response to LPS” value was “inhibited the initial hyperglycemic response to LPS” and the “hypoglycemic response to LPS” value is “did not reverse the hypoglycemic response”. Moreover, the “LPS-induced increase in IL-1β” value in assay [4] was “significantly inhibited”. The LPS-induced hypotension entry in [5] is given as “inhibited LPS-induced hypotension”.
For the compound `CC(C)NCC(O)COc1cccc2ccccc12` (stereo not shown) [propranolol], the “order of α1 receptor binding potency” value in assay [6] was “prazosin >ketanserin >eugenosedin-A >methylsergide, propranolol and 5-HT”. Moreover, the “order of α2 receptor binding potency” value in assay [7] was “prazosin >eugenosedin-A >ketanserin >methylsergide >propranolol and 5-HT”.
For `O=C(c1ccc(F)cc1)C1CCN(CCn2c(=O)[nH]c3ccccc3c2=O)CC1` [ketanserin], the “order of α1 receptor binding potency” value in assay [6] was “prazosin >ketanserin >eugenosedin-A >methylsergide, propranolol and 5-HT”. Also, in assay [7], the “binding affinity for α2-adrenoceptors” value is “had binding affinities for α2-adrenoceptors”; the “order of α2 receptor binding potency” value was “prazosin >eugenosedin-A >ketanserin >methylsergide >propranolol and 5-HT”. The “order of potency on 5-HT2A receptors” value in [12] is listed as “ketanserin >methylsergide >eugenosedin-A >5-HT >propranolol >prazosin”.
For the compound `NCCc1c[nH]c2ccc(O)cc12` [Compound 5-HT, serotonin], in [6], the “binding affinity for α1 receptors” value is “lower binding affinities for α1 receptors”; the “order of α1 receptor binding potency” value is “prazosin >ketanserin >eugenosedin-A >methylsergide, propranolol and 5-HT”. In addition, the “order of α2 receptor binding potency” value in assay [7] was “prazosin >eugenosedin-A >ketanserin >methylsergide >propranolol and 5-HT”. In addition, the “order of potency on 5-HT2A receptors” value in assay [12] is given as “ketanserin >methylsergide >eugenosedin-A >5-HT >propranolol >prazosin”.
